Experimental data: US20230340012A1, “NATURAL AND SYNTHETIC COMPOUNDS FOR TREATING CANCER AND OTHER DISEASES” (PACIFIC ARROW LIMITED, priority 2009, published 2023)

Assays:
[1] = test system: HTB-9; assay: MTT assay, bladder (HTB-9); assay type: cell-based, human
Method: (§1) Cells. HTB-9 (bladder), HeLa-S3 (cervix), DU145 (prostate), H460 (lung), MCF-7 (breast), K562 (leukemia), HCT116 (colon), HepG2 (liver), U2OS (bone), T98G (brain), SK-MEL-5 (Skin) and OVCAR 3, ES2 (ovary), Pancreas (Capan), Mouth (KB), Kidney(A498).
(§2) MTT Assay. The procedure for MTT assay followed the method described by Carmichael et al. (1987) with modifications. The cells were seeded into a 96-well plate at for 24 hours before drug-treatment. The cells were then exposed to the drugs for 48, 72, or 96 hours. After the drug-treatment, MTT (0.5 mg/mL) was added to cultures and incubated for an hour. The formazan (product of the reduction of tetrazolium by viable cells) formed and was dissolved with DMSO and the O.D. at 490 nm, and was measured by an ELISA reader. The MTT level of the cells before drug-treatment was also measured (T0). The % cell-growth (%G) is calculated as: %G = (TD-T0 / TC-T0) x 100(1), where TC or TD represents O.D. readings of control or drug-treated cells. When T0 > TD, then the cytotoxicity (LC) expressed as % of the control is calculated as: %LC = (TD-T0 / T0) × 100(2).

[2] = test system: Capan; assay: MTT assay, pancreas (Capan); assay type: cell-based, human
Method: as §1, §2
• A. Cells: Capan cells are derived from Human pancreas carcinoma (pancreas). Cells were grown in RPMI 1640 medium supplemented with 10% FCS, antibiotics and glutamine. 10000 cells were seeded in a well (96-welled plate) for one day before drug-treatment • B. Drug treatment: • -- Drug: Tig-S (stored as a 1000x stock solution in DMSO) was used. • -- Drug concentration used: from 0.15 - 20 ug/ml. • -- Drug-treatment was carried out for 3 days. • C. At the end of the drug-treatment, cytotoxic test was performed with MTT assay. The percentage of drug-treated cells’ growth as compared to those of the no drug control is determined.

[3] = test system: Fibronectin; assay: Fibronectin secretion experiment (Western blot); assay type: cell-based; details: bladder, cervix, prostate, lung, breast, leukemia, colon, liver, bone, brain, skin, ovary, pancreas, mouth, kidney cells; 24 hours
Method: Western blot is applied in this invention as a method to detect the specific proteins in treated and untreated cells with compounds in this invention, wherein the cells are bladder, cervix, prostate, lung, breast, leukemia, colon, liver, bone, brain, Skin, ovary, Pancreas(Capan), Mouth(KB), Kidney.
Cells: targeted cells were grown in RPMI 1640 medium. 1.5 million cells were seeded in a T25 flask and grown for 24 hours before drug-treatment.
Drug-treatment: Cells cultures were replaced with fresh RPMI medium containing either 2.5 ul of DMSO (as control) [D]; or 10, 20, 30, 40, 80 ug/ml of tested compounds.
After 24 hours, aliquot of culture medium was taken out for Fibronectin determination (Western blot method).
Cell viability at 24 hours was determined by MTT assay. Cultures were replaced with RPMI medium (5 ml) with MTT and incubated for an hour. The formation of formazan was dissolved in 10 ml of DMSO and OD at 570 nm was measured (MTT units). Western Blot: Spent culture medium was mixed with SDS sample buffer, boiled for 3 minutes before loading to SDS gel. Samples were applied to a 6-10% SDS gel and electrophoresis was conducted with 100 volts for 2 hours. Protein was transferred to a nitrocellulose membrane electrophoretically. The nitrocellulose blot was incubated with the first antibody and second antibody (AP conjugated, Promega S3721). The immuno-bands were developed with BCIP/NBT color development system.
Determination of Western blot band intensity: The band-images of Western blot were captured with a digital camera and the intensity of bands was determined using “Image J” software.

[4] = test system: SK-Mel-5; assay: MTT assay, skin (SK-Mel-5); assay type: cell-based, human
Method: as §1, §2

[5] = test system: HCT116; assay: MTT assay, colon (HCT116); assay type: cell-based, human
Method: as §1, §2

[6] = test system: H460; assay: MTT assay, lung (H460); assay type: cell-based, human; details: MTT
Method: as §1, §2
Methods: • A. Cells • -- H460 cells are derived from a Human Lung large cell carcinoma. Cells were grown in RPMI 1640 medium supplemented with 10% FCS, antibiotics and glutamine. 5000 cells were seeded in a well (96-welled plate) for one day before drug-treatment • B. Drug treatment: • -- Drug: Tig-S (stored as a 1000x stock solution in DMSO) was used. • -- Drug concentration used: from 0.15 - 20 ug/ml. • -- Drug-treatment was carried out for 1, 2 and 4 days. For the 4 days incubation, cells were fed with fresh medium (with drug) on day 2. • C. At the end of the drug-treatment, cytotoxic test was performed with MTT assay. Results: • 1. Tig-S inhibits H460 cells’ growth with the IC50 of drug 3 ug/ml. • 2. […] cells growth inhibition was observed beyond drug 5 ug/ml. • 3. No dead cell was found at drug concentration in 20 ug/ml.

[7] = test system: ES2 cells; assay: Inhibition of cell adhesion, ES2; assay type: cell-based, human; details: for ES2 cells attached to flasks compared to no drug controls / unattached cells alive: 5 ug/ml; for ES2 cells attached to flasks compared to no drug controls: 5 hours; for unattached cells alive: trypan Blue exclusion; for unattached cells alive / cells attached to flasks: ES2 or Hey8A; for cells attached to flasks: 10 ug/ml
Method: (§3) Methods and Results. ES2 or Hey8A cells were plated in T25 flasks with medium containing 5 ug/ml of compounds selected from structure (2A) including E4A-Tig-R, E4A-Tig-V, E4A-Tig-S, E4A-Tig-N, E4A-Tig-Q, E4A-Tig-T. Cultures were incubated for 5 hours. Attached cells were removed from flasks by trypsinization and the numbers/amounts were counted. Compared to no drug controls, 80 ± 4% of ES2 cells and 60 ± 4% of Hey8A cells were found attached to flasks under this condition. At 5 ug/ml of above compounds, over 90% of unattached cells are alive as determined by the trypan Blue exclusion assay and by their ability to re-attach to flasks when plating in medium without tested compounds. However, with 10 ug/ml tested compounds, less than 40% of cells attached to flasks and many of them are dead cells.

[8] = test system: HeLa; assay: MTT assay, cervix (HeLa); assay type: cell-based, human
Method: as §1, §2

[9] = test system: OVCAR3; assay: MTT assay, ovary (OVCAR3); assay type: cell-based, human; details: MTT
Method: as §1, §2

[10] = test system: cancer cells; assay: Inhibition of cancer growth, cancer invasion, cell invasion or cancer cell invasion; assay type: cell-based
Excerpt: The program is based on our purification methods and biological assays including the MTT assay. See International Application No. PCT/US05/31900, filed Sep. 7, 2005, U.S. Serial No. 11/289,142, filed Nov. 28, 2005, and U.S. Serial No. 11/131551, filed May 17, 2005, and PCT/US2008/002086, 1188-ALA-PCT, filed Feb. 15, 2008, 12/344,682, 1020-B1-US, filed Dec. 29, 2008. The details of Analysis of gene expression of ES2 cells after Y-treatment by Microarray, Data Analysis Methods and Western blot in PCT/US2008/002086, 1188-ALA-PCT, filed Feb. 15, 2008, and the cell invasion experiments methods in International Application PCT/US2010/0042240, filed Jul. 16, 2010.

[11] = test system: Hey8A cells; assay: Inhibition of cell adhesion, Hey8A; assay type: cell-based; details: 5 ug/ml, 5 hours
Method: as §3

[12] = test system: U2OS; assay: MTT assay, bone (U2OS); assay type: cell-based, human
Method: as §1, §2

[13] = test system: A498; assay: MTT assay, kidney (A498); assay type: cell-based, human
Method: as §1, §2

[14] = test system: K562; assay: MTT assay, leukemia (K562); assay type: cell-based, human
Method: as §1, §2

[15] = test system: T98G; assay: MTT assay, brain (T98G); assay type: cell-based, human
Method: as §1, §2

[16] = test system: DU145; assay: MTT assay, prostate (DU145); assay type: cell-based, human
Method: as §1, §2

[17] = test system: MCF-7; assay: MTT assay, breast (MCF-7); assay type: cell-based, human
Method: as §1, §2

[18] = test system: HepG2; assay: MTT assay, liver (HepG2); assay type: cell-based, human
Method: as §1, §2

[19] = test system: ES2; assay: MTT assay, ovary (ES2); assay type: cell-based, human; details: MTT
Method: as §1, §2
Method: A. Cells • -WI38 is a Normal Lung fibroblast. Cells were grown in MEM medium supplemented with 10% FCS, antibiotics and glutamine. 20 K cells were seeded per well (96-welled plate) for one day before drug-treatment • -ES2 is an Ovary Clear cells carcinoma. Cells were grown in RPMI-1640 medium supplemented with 10% FCS, antibiotics and glutamine. 10 K cells were seeded per well (96-welled plate) for one day before drug-treatment.
B. Drug treatment: • -Drug: Tig-S. stored as 1000x stock solution in DMSO. • -Drug concentration used: from 0.15 - 20 ug/ml. • -Drug-treatment was carried out for 2 days (ES2) or 6 days (WI38). For the 6 days incubation, cells were fed with fresh medium (with drug) on day 3 and 5.
C. At the end of the drug-treatment, cytotoxic test was performed with MTT assay.

[20] = test system: KB; assay: MTT assay, mouth (KB); assay type: cell-based, human
Method: as §1, §2

SMILES | IC50 of bladder (HTB-9) [1] [µg/mL] | IC50 of pancreas (Capan) [2] [µg/mL] | inhibition of fibronectin secretion [3] | IC50 of skin (SK-Mel-5) [4] [µg/mL] | IC50 of colon (HCT116) [5] [µg/mL] | IC50 of lung (H460) [6] [µg/mL] | ES2 cells attached to flasks compared to no drug controls [7] [%] | unattached cells alive [7] | cells attached to flasks [7] | IC50 of cervix (HeLa) [8] [µg/mL] | IC50 of ovary (OVCAR3) [9] [µg/mL] | anti-cancer activity [10] | Hey8A cells attached to flasks compared to no drug controls [11] [%] | IC50 of bone (U2OS) [12] [µg/mL] | IC50 of kidney (A498) [13] [µg/mL] | IC50 of leukemia (K562) [14] [µg/mL] | IC50 of brain (T98G) [15] [µg/mL] | IC50 of prostate (DU145) [16] [µg/mL] | IC50 of breast (MCF-7) [17] [µg/mL] | IC50 of liver (HepG2) [18] [µg/mL] | also measured
CC=C(C)C(=O)OCC1(C)C(O)CCC2(C)C1CCC1(C)C2CC=C2C3CC(C)(C)C(O)C(OC(=O)C(C)=CC)C3(CO)C(O)CC21C (centres unmarked) [Tig-Q] | 10 | 9 | 20-40% | 20 | 22 | 18 | 80 ± 4 | over 90% | less than 40% | 20 | 23 | have anti-cancer activities | 60 ± 4 | 20 | 13 | 6 | 29 | 15 | 18 | 24 | 
CC=C(C)C(=O)OCC1(C)C(OC(=O)C(C)=CC)CCC2(C)C1CCC1(C)C2CC=C2C3CC(C)(C)C(OC(=O)C(C)=CC)C(O)C3(CO)C(O)CC21C (centres unmarked) [Tig-U] | 15 | 9 |  | 24 | 26 | 19 |  |  |  | 17 | 27 |  |  | 23 | 18 | 10 | 22 | 15 | 25 | 23 | IC50 of ovary (ES2) [19]: 17 µg/mL; IC50 of mouth (KB) [20]: 16 µg/mL
CC=C(C)C(=O)OCC1(C)C(O)CCC2(C)C1CCC1(C)C2CC=C2C3CC(C)(C)C(OC(=O)C(C)=CC)C(O)C3(COC(=O)C(C)=CC)C(O)CC21C (centres unmarked) [Tig-V] | 4 |  | 20-40% | 6 | 8 | 6.8 | 80 ± 4 | over 90% | less than 40% | 7 | 9 | have anti-cancer activities | 60 ± 4 | 7 | 4.8 | 4 | 14 | 4 | 9 |  | IC50 of ovary (ES2) [19]: 2 µg/mL; IC50 of mouth (KB) [20]: 4.5 µg/mL
